# Test results from US11999727B2 (Tango Therapeutics, Inc., priority 2020, dated 2024).
# How the values were obtained:
# [1] = biological target: T1, PRMT5 (Homo sapiens, UniProt O14744); experiment: PRMT5 biochemical IC50 assay with SAM as cofactor; conditions: PRMT5, SAM as cofactor; read-out: SAM IC50
# T1 construct: purchased Viva (custom protein)
# [2] = biological target: T1, PRMT5; experiment: PRMT5 biochemical IC50 assay with no cofactor; conditions: PRMT5, no cofactor
# Text: Table 1 indicates IC50 values (μM) against PRMT5 for exemplary compounds in the presence of SAM as cofactor, with no cofactor, and with MTA as cofactor, respectively (columns 4-6). […] Ki values can be calculated from the IC50 values as described in the Examples section. As detailed in the Examples section, for the assay performed in the presence of SAM, IC50=Ki×1.5 (Ki=IC50/1.5).
# [3] = biological target: T1, PRMT5; experiment: PRMT5 biochemical IC50 assay with MTA as cofactor; conditions: PRMT5, MTA as cofactor; read-out: MTA IC50
# [4] = system: HAP1 MTAP-intact cell line; experiment: SDMA in-cell western assay, HAP1 MTAP-intact; format: cell-based; conditions: Homo sapiens, HAP1, SDMA in-cell western, HAP1 MTAP-intact; read-out: MTAP HAP1 intact IC50
# How it was run: (§1)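 Readout: in-cell western detection of SDMA. Cells: HAP1 expressing endogenous MTAP and an MTAP-null HAP1 counterpart. Output: IC50.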
# [5] = system: HAP1 MTAP-deleted cell line; experiment: SDMA in-cell western assay, HAP1 MTAP-deleted; format: cell-based; conditions: for IC50: Homo sapiens, HAP1, SDMA in-cell western, HAP1 MTAP-deleted; for MTAP intact/deleted ratio: IC50 ratio HAP1 MTAP-intact / HAP1 MTAP-deleted, SDMA in-cell western
# How it was run: as §1
# [6] = system: HAP1 MTAP-deleted cell line; experiment: Viability assay, MTAP-deleted cell line; format: cell-based; conditions: Homo sapiens, read-out: HAP1 MTAP deleted viability
# Text: Table 1 additionally indicates IC50 values in a viability assay for the MTAP-deleted cell line (column 10), indicating the effect of treatment with compound on cell survival.
# [7] = read-out: HAP1 MTAP deleted IC50
# [8] = read-out: No Cofactor/ rel IC50
# [9] = read-out: HAP 1 MTAP deleted IC50
# [10] = HAP1, viability assay, MTAP-deleted cell line
# [11] = HAP1, viability IC50, MTAP-deleted cell line
# T1 sequence (O14744 whole entry): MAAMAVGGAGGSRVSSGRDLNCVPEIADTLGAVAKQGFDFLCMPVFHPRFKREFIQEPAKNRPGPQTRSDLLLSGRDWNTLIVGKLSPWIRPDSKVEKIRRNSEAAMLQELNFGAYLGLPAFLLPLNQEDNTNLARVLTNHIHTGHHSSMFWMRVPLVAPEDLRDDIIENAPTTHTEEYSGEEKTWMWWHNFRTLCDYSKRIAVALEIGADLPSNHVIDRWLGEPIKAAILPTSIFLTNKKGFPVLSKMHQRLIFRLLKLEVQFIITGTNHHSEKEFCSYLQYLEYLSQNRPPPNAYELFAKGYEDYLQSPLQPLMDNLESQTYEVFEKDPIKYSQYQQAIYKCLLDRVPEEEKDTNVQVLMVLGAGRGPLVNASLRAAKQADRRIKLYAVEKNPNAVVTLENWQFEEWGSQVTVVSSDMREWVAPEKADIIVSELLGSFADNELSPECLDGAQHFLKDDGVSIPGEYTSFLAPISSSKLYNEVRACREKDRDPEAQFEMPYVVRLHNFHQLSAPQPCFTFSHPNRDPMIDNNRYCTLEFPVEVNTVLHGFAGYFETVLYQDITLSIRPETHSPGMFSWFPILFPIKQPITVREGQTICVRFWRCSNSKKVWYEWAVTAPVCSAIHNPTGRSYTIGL
# T1 sequence (Q9BQA1 whole entry partner): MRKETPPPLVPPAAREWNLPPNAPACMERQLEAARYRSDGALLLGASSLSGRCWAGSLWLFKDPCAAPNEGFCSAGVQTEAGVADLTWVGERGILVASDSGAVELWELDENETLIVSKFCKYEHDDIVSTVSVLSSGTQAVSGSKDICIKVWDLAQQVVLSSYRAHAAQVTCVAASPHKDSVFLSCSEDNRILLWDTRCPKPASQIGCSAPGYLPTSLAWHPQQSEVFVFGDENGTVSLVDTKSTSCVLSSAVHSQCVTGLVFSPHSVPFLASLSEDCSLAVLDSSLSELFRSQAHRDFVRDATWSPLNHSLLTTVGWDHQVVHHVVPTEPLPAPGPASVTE
IC50 [1] [nM],IC50 ([2]; read-out: No Cofactor/rel IC50) [nM],IC50 [3] [nM],IC50 [4] [nM],"IC50 [5, 7] [nM]","IC50 [2, 8] [nM]","IC50 [5, 9] [nM]",Structure (SMILES),MTAP intact/deleted ratio [5],"IC50 ([6]; HAP1, viability assay, HAP1 MTAP-deleted) [nM]","IC50 [6, 10] [nM]","IC50 [6, 11] [nM]"
> 500,> 500,> 500,> 1000,> 1000,–,–,"C[C@@H]1CN(C(=O)C(=O)Nc2cncc(C(N)=O)c2)[C@@H](c2ccc(F)c(F)c2)CC1(F)F (single isomer, unassigned) [Compound 706]",B (an IC50 ratio greater than or equal to 3 fold but lower than 10 fold),> 10000,–,–
> 500,> 500,50 to 500,> 1000,–,–,100 to 1000,"C[C@@H]1CC[C@H](c2ccccn2)N(C(=O)C(=O)Nc2cncc(C(N)=O)c2)C1 (racemic) [Compound 584, 5-[[2-[(2R,5R)-5-methyl-2-(2-pyridyl)-1-piperidyl]-2-oxo-acetyl]amino]pyridine-3-carboxamide]",A (an IC50 ratio greater than or equal to 10 fold),–,–,> 10000
50 to 500,> 500,50 to 500,> 1000,–,–,> 1000,"CC(=O)N[C@H]1C[C@H]([C@H]2CC[C@@H](C)CN2C(=O)C(=O)Nc2cnc(N)c(C)c2)C1 (single isomer, unassigned) [Compound 564]",B (an IC50 ratio greater than or equal to 3 fold but lower than 10 fold),–,–,> 10000
50 to 500,< 50,< 50,100 to 1000,–,–,< 100,"CC(=O)Nc1ccc([C@H]2CC[C@H](C)CN2C(=O)C(=O)Nc2cnc(N)c(C)c2)cn1 (single isomer, unassigned) [Compound 915]",A (an IC50 ratio greater than or equal to 10 fold),–,1000 to 10000,–
> 500,> 500,> 500,> 1000,> 1000,–,–,"C[C@H]1CC[C@H](c2ccc(N)nc2)N(C(=O)C(=O)Nc2cncc(C(N)=O)c2)C1 (single isomer, unassigned) [Compound 493]",C (an IC50 ratio of less than 3 fold),–,> 10000,–

# Continued, compound first:
Structure (SMILES),IC50 [1] [nM],IC50 ([2]; read-out: No Cofactor/rel IC50) [nM],IC50 [3] [nM],IC50 [4] [nM],"IC50 [5, 7] [nM]","IC50 [2, 8] [nM]","IC50 [5, 9] [nM]",MTAP intact/deleted ratio [5],"IC50 ([6]; HAP1, viability assay, HAP1 MTAP-deleted) [nM]","IC50 [6, 10] [nM]","IC50 [6, 11] [nM]"
"COc1ccc([C@@H]2CC[C@@H](C)CN2C(=O)C(=O)Nc2cncc(C(N)=O)c2)cn1 (racemic) [Compound 128, rac-5-{2-[(2R,5S)-2-(6-Methoxypyridin-3-yl)-5-methylpiperidin-1-yl]-2-oxoacetamido}pyridine-3-carboxamide]",50 to 500,–,< 50,> 1000,–,50 to 500,100 to 1000,A (an IC50 ratio greater than or equal to 10 fold),–,> 10000,–
"Cc1c(NC(=O)C(=O)N2C[C@@H](C)CC[C@@H]2c2ccccc2)cnc(N)c1C (single isomer, unassigned) [Compound 368]",50 to 500,50 to 500,< 50,> 1000,< 100,–,–,A (an IC50 ratio greater than or equal to 10 fold),–,1000 to 10000,–
"C[C@@H]1CC[C@H](c2ccccc2)N(C(=O)C(=O)Nc2cncc(C(N)=O)c2)[C@@H]1C (racemic) [Compound 163, rac-5-[[2-[(2R,3R,6R)-2,3-dimethyl-6-phenyl-1-piperidyl]-2-oxo-acetyl]amino]pyridine-3-carboxamide]",50 to 500,–,< 50,> 1000,–,50 to 500,100 to 1000,A (an IC50 ratio greater than or equal to 10 fold),–,> 10000,–
"Cc1cc(NC(=O)C(=O)N2CCCCC2c2ccccc2)cnc1N (racemic) [Compound 53, N-(6-Amino-5-methyl-3-pyridyl)-2-oxo-2-(2-phenyl-1-piperidyl)acetamide]",50 to 500,–,< 50,> 1000,–,50 to 500,100 to 1000,A (an IC50 ratio greater than or equal to 10 fold),–,> 10000,–
